Experimental data taken from US20050171063A1, “Use of phosphono derivatives as anti-malarials” (priority 2003, published 2005).

Assays:
P. berghei [1] = experiment: Effect of PAA on survival of infected mice; format: in vivo, BALB/c mice; conditions: dose in the range of about 1 to 50 mg/kg (embodiment)
Experimental: (§1) BALB/c mice (4-6 weeks old) were infected with 10^5 P. berghei parasites/mouse. After four days of infection, when phosphono acetic acid (dissolved in saline and filter sterilized) at a dose of either 25 mg/kg body weight, or 50 mg/kg body weight. The injection of phosphono acetic acid was continued, once a day, for four days. After the fourth day of injection, parasitemea was determined by making Geimsa stained blood smears from the mice.
Effect of PAA on Survival of Infected Mice
The compound of various concentrations was added to the 200 μl of synchronized P. falciparum culture (1% parasitemia). The parasitemia was checked by making Giemsa stained smear after 48 hrs of incubation at 37° C. The compound, PAA was used at the doses of 25 mg/kg and 50 mg/kg body weight. The control group indicates the group of mice infected with the parasite, but with no drug given.

P. berghei [2] = experiment: Effect on P. berghei infected mice (in vivo model), parasitemia by Giemsa stained blood smears; design: species or system BALB/c mice; conditions: 50 mg/kg of body weight, once a day for four days
Experimental: Effect of Phosphono Acetic Acid on P. berghei Infected Mice (In Vivo Model)
as §1

[3] = tested on: 3D7 strain of P. falciparum; experiment: Microscopy of Giemsa-stained slides, 3D7 strain of P. falciparum; format: cell-based, Plasmodium falciparum; conditions: upon addition of PAA
Source text: The effect of Phosphono Acetic Acid on the 3D7 Strain of P. falciparum Giemsa-stained slides prepared for the experiment were examined under a microscope and represented in Plate 4. […] It is clear that PAA actually kills the parasite rather than simply inhibiting their growth (FIG. 4).

P. falciparum = experiment: Effect of drug on P. falciparum in vitro: synchronized culture, Giemsa stained smear after 48 hrs; format: cell-based, Plasmodium falciparum
Experimental: Phosphono acetic acid was dissolved in normal saline and filter sterilized. The compound was added to the parasite culture at different concentrations ranging from 1-400 μm. The compound phosphono acetic acid was tested at the indicated doses using the experimental protocol as described below:
Protocol for Testing the Effect of Drug on P. falciparum for In Vitro Studies
The P. falciparum cultures were synchronized at first by sorbitol treatment. The compound of various concentrations was added to the 200 μl of synchronized P. falciparum culture (1% parasitemia). The parasitemia was checked by making Giemsa stained smear after 48 hrs of incubation at 37° C. The growth of P. falciparum was inhibited in dose-dependent manner, where 1 μM concentration yielded >90% inhibition (Plate 1). The bars represent the percent inhibition, whereas, the blue curve indicates the percentage of parasitemia.
Phosphono formic acid was dissolved in normal saline and filter sterilized. The compound was added to the parasite culture at different concentrations ranging from 1-10 μM. The growth of P. falciparum was inhibited in dose-dependent manner, where 10 μM concentration yielded −70% inhibition (FIG. 2).

| SMILES | enhances the survival (P. berghei [1]) | inhibition of growth of P. berghei (P. berghei [2]) | effect on parasite seen under microscope [3] | inhibition of growth of P. falciparum (P. falciparum; 1 μM concentration, 48 hrs, 1% parasitemia) | inhibits growth of P. falciparum (P. falciparum; range of about 1 to 5 μM (embodiment)) | inhibition of growth of P. falciparum (P. falciparum; 10 μM concentration) |
| --- | --- | --- | --- | --- | --- | --- |
| O=C(O)CP(=O)(O)O [phosphono acetic acid] | about 60% | −60% | disintegrated trophozoltes are seen | > 90% | about 100% |  |
| O=C(O)P(=O)(O)O [phosphono formic acid] |  |  |  |  |  | −70% |
